Test results taken from patent publication US9643946B2, “Tricyclic compound and use thereof” (SK CHEMICALS CO., LTD., priority 2013, dated 2017).
pIC50: −log10 of the molar value.

Columns and labels:
male ZFDM rats = assay: Hypoglycemic rate after oral glucose loading in rats; type: in vivo, rat; conditions: oral 0.1 to 30 mg/kg one hour before glucose loading (1.5 g/kg), blood glucose AUC 0 to 120 minutes versus control
Description: Measurement of Hypoglycemic Rate in Rats
An effect of the compound according to one exemplary embodiment of the present invention on blood glucose inhibition after glucose loading was examined in male ZFDM rats (Japan SLC, Inc.).
Specifically, male ZFDM rats (7 week-old) pre-fed for a week were fasted overnight, and used as an animal to be tested. A test compound was prepared into a 0.5% methylcellulose suspension, which was orally administered to rats at a dose of 0.1 to 30 mg/kg before an hour of glucose loading (1.5 g/kg). As the control, 0.5% methylcellulose was administered. After the glucose administration, blood was drawn from the rats' tails after 0, 15, 30, 60 and 120 minutes to measure a blood glucose level. The area under the curve (AUC) for compound treatment was calculated using a blood glucose change profile from t=0 to 120 minutes, and a hypoglycemic rate (%) for the control was calculated.

human GPR40 protein = human GPR40 protein (Homo sapiens, UniProt O14842); assay: GPR40 agonist binding inhibition (displacement of 3H-labeled propanoic acid radioligand); conditions: membrane protein including human GPR40, 3H-labeled propanoic acid radioligand, 25° C., 2 hours; read-out: Half maximal inhibitory concentration
Description: Measurement of 50% Inhibitory Concentration (ID50) for GPR40 Agonist Binding
To examine the efficacy of the compounds according to one exemplary embodiment of the present invention in modulating GPR40, the half maximal inhibitory concentrations (IC50) of the compounds according to one exemplary embodiment of the present invention were measured by Microbeta2™ (PerkinElmer Inc.) using a change in radiation dose emitted from ^3H-labeled propanoic acid (i.e., 3-(4-((2,6′-dimethyl-6-((4-(^3H))-phenylmethoxy)biphenyl-3-yl)methoxy)phenyl)propanoic acid), which is a radioactive isotope which binds to a human GPR40 protein, as an indicator.
Specifically, a test compound was prepared by serial dilution with DMSO, and 100 μL of a binding buffer (including 25 mM HEPES (pH 7.5), 5 mM MgCl2, 100 mM NaCl, and 0.1% free fatty acid BSA; Sigma-Aldrich Corp.) was put into each well of a 96-well transparent plate. Thereafter, each of the diluted compound, propanoic acid which was prepared by dissolving propanoic acid in DMSO to a concentration of 500 mM and not labeled with a radioactive isotope, and DMSO was dispensed at 5 μL per well. ^3H-labeled propanoic acid was dissolved in a binding buffer at a concentration of 1 nM and dispensed at 50 μL into the corresponding wells, and a membrane protein including a human GPR40 protein was dissolved in a binding buffer at a concentration of 20 μg/well and dispensed at 100 μL, into the corresponding wells.
After the dispensation was completed, the plate was incubated at a temperature of 25° C. and a rotary speed of 230 rpm for 2 hours while shaking. A human GPR40 complex was transferred to Filtermat A (PerkinElmer Inc.) using a cell harvester (PerkinElmer Inc.), washed 10 times with 50 mM tris-HCl, dried, and then scintillated using Meltilex (PerkinElmer Inc.). Thereafter, an emitted radiation dose was measured using Microbeta2™. The radiation doses emitted from the complex in the well containing 10 mM unlabeled propanoic acid and the complex in the well containing DMSO alone were set as 0% and 100%, respectively. Thus, a change curve for each of the radiation doses was plotted to calculate the half maximal inhibitory concentration of the test compound.

human GPR40 protein, sequence (O14842 whole entry): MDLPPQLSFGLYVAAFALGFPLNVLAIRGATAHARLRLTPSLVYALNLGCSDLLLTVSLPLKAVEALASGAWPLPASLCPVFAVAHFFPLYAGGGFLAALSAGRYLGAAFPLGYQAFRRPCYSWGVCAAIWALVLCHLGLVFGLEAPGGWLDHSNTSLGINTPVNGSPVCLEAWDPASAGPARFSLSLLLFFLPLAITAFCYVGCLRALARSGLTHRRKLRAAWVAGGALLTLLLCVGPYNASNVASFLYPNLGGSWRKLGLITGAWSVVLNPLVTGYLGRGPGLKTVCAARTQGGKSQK

| SMILES | Hypoglycemic rate (male ZFDM rats) | pIC50 (human GPR40 protein) |
| --- | --- | --- |
| CS(=O)(=O)CCCOc1ccc2c(c1)CCCc1ccc(CNc3ccc([C@H]4C[C@@H]4C(=O)O)cc3)cc1-2 [Example 6, (1S,2S)-2-(4-(((9-(3-(methylsulfonyl)propoxy)-6,7-dihydro-5H-dibenzo[a,c][7]annulen-2-yl)methyl)amino)phenyl)cyclopropanecarboxylic acid] | 18.0% | 6.93 |
| CC#C[C@@H](CC(=O)O)c1ccc(OCc2ccc3c(c2)-c2ccc(OCCCS(C)(=O)=O)cc2CCC3)cc1 [Example 108, (S)-3-(4-((9-(3-(methylsulfonyl)propoxy)-6,7-dihydro-5H-dibenzo[a,c][7]annulen-2-yl)methoxy)phenyl)hex-4-ynoic acid] | 37.5% | – |
